# Source: patent publication US10238641B2, “Materials and methods for diagnosis, prevention and/or treatment of stress disorders and conditions associated with A-beta peptide aggregation” (The United States of America as represented by the …, priority 2008, dated 2019)
# Tested on: nAChRs
# Assay type: cell-based, rat
smiles,measurement,value
"CN1CCCC1c1cccnc1 (stereo not shown) [nicotine, reference compound]",reversal by α-Bgt of the beneficial actions against Aβ toxicity,able to reverse the beneficial actions of nicotine
